Columns and labels:
NKCC1 mRNA = NKCC1 mRNA in HT-29 cells, semiquantitative and real-time RT-PCR; type: cell-based, human; conditions: ALD 1 μM, both RT-PCR methods
Procedure: Relative quantitative RT-PCR. Total RNA was extracted using the RNAeasy Mini Kit (Qiagen, Valencia Calif.). […] Primers used for qRTPCR were as follows: […]
The semiquantitative qRT-PCR reaction took place at 45° C. for 50 min. The competition between primer sets was excluded by adjusting the reaction condition.
Then, the primer products were PCR amplified directly. A first cycle of 10 min. at 95° C., 45 s at 65° C., and 1 min at 72° C. was followed by 45 s at 95° C., 45 s at 65° C., and 1 min at 72° C. for 25 cycles. The conditions were chosen so that the RNAs analyzed were in the exponential phase of amplification. Each set of reactions always included a no-sample negative control. We usually performed a negative control containing RNA instead of cDNA to rule out genomic DNA contamination.
The real-time RT-PCR reaction mixture was prepared using the SYBR-Green PCR Master Mix. Thermal cycling conditions were the same as in the semiquantitative method. Amplification specificity was checked using melting curves. Both negative and positive controls were included in each PCR reaction. All assays were carried out three times as independent PCR runs for each cDNA sample. […] Calculations of expression were performed with the […] method (Bustin, et al., Quantitative real-time RTPCR—a perspective. J Mol Endocrinol 34: 597-601, 2005).

[1] = tested on: Spiral ganglion neuron (SGN); assay: Spiral ganglion neuron cell density, H&E staining of cochlear sections; type: in vivo, mouse; conditions: upper apical, lower apical, upper basal, lower basal regions; ALD-treated middle-aged mice vs untreated control mice
Procedure: Death was confirmed by terminal phlebotomy/exsanguinations and perfusion.
For immunohistochemistry, mice were sacrificed, and one of the cochleae dissected, fixed in 4% paraformaldehyde in PBS overnight at 4° C., decalcification in 10% EDTA in PBS for a week at 4° C., and incubated in cryoprotection solution overnight at 4° C. The cochleae were embedded into degassed OCT overnight at 4° C., orientated into the cryomold with OCT degassed for 1 hour, then frozen at −80° C. Cryosectioning was performed at 5 μm per section. The cochlear cross sections were stained with hematoxylin and eosin (H&E) and MCR (H-300) (sc-11412, Santa Cruz Bio). The spiral ganglion neurons were counted by Metamorph imaging software (Molecular Devices, Center Valley, Pa. 18034-0610) and data analyzed by GraphPad Prism (GraphPad Software, Inc. La Jolla, Calif.).
Spiral ganglion neuron (SGN) cell density was measured from 4 different topographical area, comparing ALD-treated middle-aged mice to age-matched controls. […] Further, this increase in SGN is correlated with ABR threshold shifts (shown below) in the same mice.

NKCC1 = assay: Tl-uptake in single HT-29 cells (FluxOR) for NKCC1 activity; type: cell-based, human; conditions: 24 single HT-29 cells per condition
Excerpt: Tl-uptake in single cells for the detection of NKCC1 activity. To measure NKCC1 activity, we used a fluorescence assay to assess cotransporter activity in single isolated HT-29 cells (Delpire & Austin, Kinase regulation of Na^+—K^+-2Cl^− cotransport in primary afferent neurons. J Physiol 588: 3365-3373, 2010, Geng, et al., The Ste20 kinases SPAK and OSR1 regulate NKCC1 function in sensory neurons. J Biol Chem 284: 14020-14028, 2009, Weaver, et al., A thallium-sensitive, fluorescence-based assay for detecting and characterizing potassium channel modulators in mammalian cells. J Biomol Screen 9: 671-677, 2004). HT-29 cells were incubated at 37° C./5% CO2 for 24 h before use. […] For the detection of fluorescence, the preincubation solution was removed, and the cells were treated with a 340.5 mosM hypertonic stimulus solution containing the following (in mM): (2.8 TISO4, 140 NaCl, 2 KCl, 2 CaCl2, 0.8 MgSO4, 5 glucose, 20 HEPES, 27 sucrose, 1 ouabain, and 2.7 probenecid) in the presence or absence of 20 μM bumetanide. […] FluxOR fluorescence (excitation/emission: 488/525 nm) was recorded after 90 s upon addition of 2.8 mM […] to the external medium. […]
Influence of ALD on NKCC1 transporter activity. […] To test this hypothesis, a more efficient and sensitive method, fluorescence Ion flux assays was adopted to measure NKCC1 transporter activity. […]

For `C[C@]12CCC(=O)C=C1CC[C@@H]1[C@@H]2[C@@H](O)C[C@]2(C=O)[C@@H](C(=O)CO)CC[C@@H]12` [ALD, aldosterone], the “NKCC1 mRNA” value (NKCC1 mRNA) was “no mRNA change”, the SGN density [1] was “SGN density was higher” and the “bumetanide-sensitive Tl+ uptake fluorescence” value (NKCC1) was “marked increase in fluorescence”.
